pIC50: −log10 of the molar value. Like-named read-outs stand apart in the source and are kept apart here.
Experiments:
[1] = target: Human MET (residues 956-1390) (Homo sapiens (Human), UniProt P08581); experiment: Human Met kinase assay, HTRF KinEase (Example D-2); assay type: biochemical; details: read-out: c-Met IC50
Summary of the method: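 MET kinase domain (956-1390), 0.1 ng/well, in buffer with 5 mM MgCl2, 1 mM DTT and 1 mM MnCl2, phosphorylated a biotinylated peptide at ATP Km for 40 min at RT; 10 concentrations, 3% DMSO final. EDTA-stopped HTRF read after 60 min; IC50 from a 4-parameter logistic fit.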

[2] = target: KDR (phospho-KDR, VEGF165-stimulated HUVEC cells) (Homo sapiens (Human), UniProt P35968); experiment: KDR autophosphorylation ELISA in HUVEC cells (Example G); assay type: cell-based; details: cellular activity; KDR autophosphorylation ELISA in HUVEC cells
Summary of the method: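 Read-out is phospho-KDR measured by ELISA in lysates of VEGF165-stimulated (100 ng/mL, 5 min) HUVEC that were serum-starved 24 h and then pre-exposed 1 h to compound across 8 doses in 0.3% DMSO. Unstimulated lysates defined 0% and stimulated vehicle lysates 100% activity; IC50 values come from 4-parameter logistic regression.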

[3] = target: Human MER (residues 528-999) (Homo sapiens (Human), UniProt Q12866); experiment: Human Mer kinase assay, HTRF KinEase (Example C-2); assay type: biochemical
Summary of the method: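 Recombinant MER 528-999 (1 ng/well) in buffer with 5 mM MgCl2 and 1 mM DTT was reacted with biotinylated peptide and ATP at Km (40 μM) for 60 min at room temperature. EDTA stop with SA-XL665 and Eu3+ TK antibody, then 665/620 nm HTRF read; IC50 from 4-parameter fit.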

[4] = target: Met (phospho-Met, HGF-stimulated PC-3 prostate cancer cells) (Homo sapiens (Human), UniProt P08581); experiment: Met autophosphorylation ELISA in PC-3 cells (Example F); assay type: cell-based; details: cellular activity; Met autophosphorylation ELISA in PC-3 cells; read-out: c-Met IC50
Summary of the method: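 Compounds were tested on HGF-stimulated PC-3 cells. After 24 h culture and 3 h serum starvation, cells got compound for 1 h and 100 ng/mL HGF for 10 min, and Met tyrosine phosphorylation was measured by ELISA.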

[5] = protocol of Example D-2 (other compounds)
[6] = protocol of Example C-2 (other compounds)

Sequence of KDR (phospho-KDR, VEGF165-stimulated HUVEC cells) (P35968 20-1356): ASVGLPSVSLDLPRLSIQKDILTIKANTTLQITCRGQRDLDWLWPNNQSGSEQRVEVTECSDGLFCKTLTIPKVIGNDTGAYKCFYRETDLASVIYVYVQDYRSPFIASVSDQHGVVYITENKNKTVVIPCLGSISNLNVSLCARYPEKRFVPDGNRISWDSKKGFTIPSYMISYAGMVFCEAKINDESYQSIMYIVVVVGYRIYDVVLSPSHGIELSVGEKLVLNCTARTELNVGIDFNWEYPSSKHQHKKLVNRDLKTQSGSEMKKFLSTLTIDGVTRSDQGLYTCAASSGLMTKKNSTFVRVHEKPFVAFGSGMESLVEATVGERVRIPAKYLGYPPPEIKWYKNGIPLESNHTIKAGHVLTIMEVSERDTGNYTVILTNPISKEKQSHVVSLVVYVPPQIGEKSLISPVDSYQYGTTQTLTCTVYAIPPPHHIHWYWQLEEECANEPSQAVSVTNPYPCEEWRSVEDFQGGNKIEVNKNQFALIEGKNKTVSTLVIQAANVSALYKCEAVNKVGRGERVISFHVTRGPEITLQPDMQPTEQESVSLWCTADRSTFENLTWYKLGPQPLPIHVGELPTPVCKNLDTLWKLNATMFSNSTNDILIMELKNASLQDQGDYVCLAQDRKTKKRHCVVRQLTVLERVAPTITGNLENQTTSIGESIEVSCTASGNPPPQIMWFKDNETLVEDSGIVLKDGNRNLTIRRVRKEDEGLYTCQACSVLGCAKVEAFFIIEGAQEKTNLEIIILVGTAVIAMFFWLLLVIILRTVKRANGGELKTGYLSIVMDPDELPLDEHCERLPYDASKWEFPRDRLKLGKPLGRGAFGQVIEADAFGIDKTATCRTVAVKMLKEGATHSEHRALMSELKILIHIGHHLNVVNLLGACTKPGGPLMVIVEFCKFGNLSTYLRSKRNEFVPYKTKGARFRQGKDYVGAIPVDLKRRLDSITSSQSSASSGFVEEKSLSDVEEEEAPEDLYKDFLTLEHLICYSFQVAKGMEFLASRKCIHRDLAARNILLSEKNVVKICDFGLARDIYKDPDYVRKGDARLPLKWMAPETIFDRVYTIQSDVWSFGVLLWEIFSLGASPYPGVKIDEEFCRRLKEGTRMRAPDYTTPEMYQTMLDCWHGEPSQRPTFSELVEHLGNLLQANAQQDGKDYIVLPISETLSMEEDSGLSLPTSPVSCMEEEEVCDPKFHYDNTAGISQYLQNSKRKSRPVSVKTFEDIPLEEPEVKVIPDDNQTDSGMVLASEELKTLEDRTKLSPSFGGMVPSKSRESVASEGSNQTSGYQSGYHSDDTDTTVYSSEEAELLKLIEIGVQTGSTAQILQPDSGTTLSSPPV
Sequence of Met (phospho-Met, HGF-stimulated PC-3 prostate cancer cells) (P08581 25-1390): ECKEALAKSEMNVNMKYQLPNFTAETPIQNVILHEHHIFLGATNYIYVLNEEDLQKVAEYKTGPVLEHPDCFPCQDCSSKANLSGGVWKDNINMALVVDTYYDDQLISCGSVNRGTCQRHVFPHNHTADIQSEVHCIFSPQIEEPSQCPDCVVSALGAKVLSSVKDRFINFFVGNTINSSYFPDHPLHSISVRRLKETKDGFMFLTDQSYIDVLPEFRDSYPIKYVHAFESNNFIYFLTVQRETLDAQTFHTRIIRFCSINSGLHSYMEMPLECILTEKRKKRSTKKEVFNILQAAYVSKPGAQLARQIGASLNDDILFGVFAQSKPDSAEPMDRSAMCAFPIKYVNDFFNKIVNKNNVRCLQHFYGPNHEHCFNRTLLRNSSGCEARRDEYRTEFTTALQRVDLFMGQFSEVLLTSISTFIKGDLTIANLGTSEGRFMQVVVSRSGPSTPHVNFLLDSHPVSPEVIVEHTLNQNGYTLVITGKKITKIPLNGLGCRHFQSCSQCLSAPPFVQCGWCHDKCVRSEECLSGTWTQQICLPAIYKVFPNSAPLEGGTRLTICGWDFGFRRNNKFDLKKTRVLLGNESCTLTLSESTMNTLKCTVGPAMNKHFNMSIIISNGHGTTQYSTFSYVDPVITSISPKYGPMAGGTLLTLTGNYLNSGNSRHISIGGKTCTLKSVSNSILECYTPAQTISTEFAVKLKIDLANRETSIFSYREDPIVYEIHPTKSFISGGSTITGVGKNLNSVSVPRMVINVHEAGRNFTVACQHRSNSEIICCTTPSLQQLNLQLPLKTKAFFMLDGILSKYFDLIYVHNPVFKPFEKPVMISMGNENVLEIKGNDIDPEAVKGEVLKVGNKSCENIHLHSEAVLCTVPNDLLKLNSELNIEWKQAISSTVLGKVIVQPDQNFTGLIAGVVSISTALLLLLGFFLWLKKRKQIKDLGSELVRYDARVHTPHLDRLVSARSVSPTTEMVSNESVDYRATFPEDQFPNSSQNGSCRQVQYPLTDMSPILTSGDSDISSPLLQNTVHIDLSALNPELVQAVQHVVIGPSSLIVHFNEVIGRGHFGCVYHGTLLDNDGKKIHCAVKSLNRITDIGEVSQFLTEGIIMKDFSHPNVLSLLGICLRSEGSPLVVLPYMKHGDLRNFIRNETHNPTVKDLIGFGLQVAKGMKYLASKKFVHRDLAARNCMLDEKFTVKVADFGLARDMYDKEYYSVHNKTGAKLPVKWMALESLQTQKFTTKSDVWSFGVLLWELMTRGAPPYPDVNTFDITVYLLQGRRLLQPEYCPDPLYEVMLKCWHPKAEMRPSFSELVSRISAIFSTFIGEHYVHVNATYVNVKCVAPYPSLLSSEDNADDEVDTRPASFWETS
Sequence of Human MER (residues 528-999) (Q12866 528-999): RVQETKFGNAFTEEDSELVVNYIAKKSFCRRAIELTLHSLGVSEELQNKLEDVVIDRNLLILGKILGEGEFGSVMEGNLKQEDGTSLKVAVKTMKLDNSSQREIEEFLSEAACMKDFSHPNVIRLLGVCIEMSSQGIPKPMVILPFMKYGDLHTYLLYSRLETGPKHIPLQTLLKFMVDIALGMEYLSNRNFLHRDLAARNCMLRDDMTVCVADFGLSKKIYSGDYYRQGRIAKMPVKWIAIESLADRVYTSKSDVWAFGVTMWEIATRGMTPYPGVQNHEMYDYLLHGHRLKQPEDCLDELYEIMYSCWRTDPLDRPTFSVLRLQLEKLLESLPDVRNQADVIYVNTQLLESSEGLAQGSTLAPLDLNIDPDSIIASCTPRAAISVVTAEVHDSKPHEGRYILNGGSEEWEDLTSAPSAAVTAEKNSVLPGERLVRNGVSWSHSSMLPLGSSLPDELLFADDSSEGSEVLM
Sequence of Human MET (residues 956-1390) (P08581 956-1390): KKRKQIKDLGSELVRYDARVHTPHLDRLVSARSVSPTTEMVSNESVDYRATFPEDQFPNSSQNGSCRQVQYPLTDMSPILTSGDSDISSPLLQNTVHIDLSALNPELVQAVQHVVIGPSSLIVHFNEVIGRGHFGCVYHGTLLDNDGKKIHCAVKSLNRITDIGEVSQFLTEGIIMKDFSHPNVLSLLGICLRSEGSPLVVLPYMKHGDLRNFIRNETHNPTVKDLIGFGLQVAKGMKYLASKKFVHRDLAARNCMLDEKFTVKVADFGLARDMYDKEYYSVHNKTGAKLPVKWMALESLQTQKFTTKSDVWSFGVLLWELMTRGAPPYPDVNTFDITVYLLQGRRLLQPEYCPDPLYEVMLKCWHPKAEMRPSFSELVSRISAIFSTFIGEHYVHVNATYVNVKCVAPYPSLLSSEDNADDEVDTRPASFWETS

| pIC50 ([1]; protocol of Example D-2) | pIC50 [2] | pIC50 ([3]; protocol of Example C-2) | pIC50 [4] | pIC50 [1, 5] | pIC50 [3, 6] | SMILES |
| --- | --- | --- | --- | --- | --- | --- |
| > 7.00 | < 6.52 | > 7.00 | 6.52 to 7.00 |  |  | COc1cnc2c(Oc3ccc(NC(=O)c4cc(C)nn(-c5ccc(F)cc5)c4=O)cc3F)ccnc2c1 [Compound 521, N-[3-fluoro-4-[(7-methoxy-1,5-naphthyridin-4-yl)oxy]phenyl]-2-(4-fluorophenyl)-6-methyl-3-oxopyridazine-4-carboxamide] |
| > 7.00 | > 7.00 | > 7.00 | > 7.00 |  |  | COc1cc2nccc(Oc3ccc(NC(=O)c4c(C)n(C)cc(-c5ccc(F)cc5C)c4=O)cc3F)c2nc1OC [Compound 481, N-[4-[(6,7-dimethoxy-1,5-naphthyridin-4-yl)oxy]-3-fluorophenyl]-5-(4-fluoro-2-methylphenyl)-1,2-dimethyl-4-oxopyridine-3-carboxamide] |
|  | < 6.52 |  | 6.52 to 7.00 | > 7.00 | > 7.00 | COc1cc2nccc(Oc3ccc(NC(=O)c4cn(CC(F)(F)F)c(C)c(-c5ccc(F)cc5)c4=O)cc3)c2cc1OC [Compound 260, N-[4-(6,7-Dimethoxyquinolin-4-yl)oxyphenyl]-5-(4-fluorophenyl)-6-methyl-4-oxo-1-(2,2,2-trifluoroethyl)pyridine-3-carboxamide] |
| 6.52 to 7.00 | > 7.00 | > 7.00 | > 7.00 |  |  | COc1nc2c(Oc3ccc(NC(=O)c4c(C)nc(C)c(-c5ccc(F)cc5)c4O)cc3F)ccnc2cc1C [Compound 459, N-[3-fluoro-4-[(6-methoxy-7-methyl-1,5-naphthyridin-4-yl)oxy]phenyl]-5-(4-fluorophenyl)-4-hydroxy-2,6-dimethylpyridine-3-carboxamide] |
| 6.52 to 7.00 | 6.52 to 7.00 | > 7.00 | > 7.00 |  |  | CCn1cc(C(=O)Nc2ccc(Oc3ccnc4cc(OC)c(OC)nc34)c(F)c2)c(=O)c(-c2ccc(F)cc2)c1CF [Compound 562, N-[4-[(6,7-Dimethoxy-1,5-naphthyridin-4-yl)oxy]-3-fluorophenyl]-1-ethyl-6-(fluoromethyl)-5-(4-fluorophenyl)-4-oxopyridine-3-carboxamide] |
|  | > 7.00 |  | > 7.00 | > 7.00 | > 7.00 | COCCOc1ccc2nccc(Oc3ccc(NC(=O)c4cnc(C)c(-c5ccc(F)cc5)c4O)cc3F)c2n1 [Compound 348, N-[3-fluoro-4-[[6-(2-methoxyethoxy)-1,5-naphthyridin-4-yl]oxy]phenyl]-5-(4-fluorophenyl)-4-hydroxy-6-methylpyridine-3-carboxamide] |
| > 7.00 | > 7.00 | > 7.00 | > 7.00 |  |  | CCc1nc(C)c(-c2ccc(F)cc2)c(O)c1C(=O)Nc1ccc(Oc2ccnc3ccc(OC)nc23)cc1 [Compound 509, 2-ethyl-5-(4-fluorophenyl)-4-hydroxy-N-[4-[(6-methoxy-1,5-naphthyridin-4-yl)oxy]phenyl]-6-methylpyridine-3-carboxamide] |
| 6.52 to 7.00 | > 7.00 | > 7.00 | > 7.00 |  |  | COc1nc2c(Oc3ccc(NC(=O)c4cnc(C)c(-c5ccc(F)cc5)c4O)cc3F)ccnc2cc1C [Compound 458, N-[3-fluoro-4-[(6-methoxy-7-methyl-1,5-naphthyridin-4-yl)oxy]phenyl]-5-(4-fluorophenyl)-4-hydroxy-6-methylpyridine-3-carboxamide] |
| 6.52 to 7.00 | 6.52 to 7.00 | > 7.00 | > 7.00 |  |  | COc1cc2nccc(Oc3ccc(NC(=O)c4c(C)c(C)nn(-c5ccc(F)cc5)c4=O)cc3F)c2nc1OC [Compound 524, N-[4-[(6,7-dimethoxy-1,5-naphthyridin-4-yl)oxy]-3-fluorophenyl]-2-(4-fluorophenyl)-5,6-dimethyl-3-oxopyridazine-4-carboxamide] |
| > 7.00 | 6.52 to 7.00 | > 7.00 | > 7.00 |  |  | COc1cc2nccc(Oc3ccc(NC(=O)c4c(C)n(C)c(C)c(-c5ccc(F)cc5)c4=O)cc3F)c2nc1OC [Compound 511, N-[4-[(6,7-dimethoxy-1,5-naphthyridin-4-yl)oxy]-3-fluorophenyl]-5-(4-fluorophenyl)-1,2,6-trimethyl-4-oxopyridine-3-carboxamide] |
| > 7.00 | > 7.00 | > 7.00 | > 7.00 |  |  | COc1cc2nccc(Oc3ccc(NC(=O)c4c(C)ncc(-c5ccc(F)cc5C)c4O)cc3F)c2nc1OC [Compound 479, N-[4-[(6,7-dimethoxy-1,5-naphthyridin-4-yl)oxy]-3-fluorophenyl]-5-(4-fluoro-2-methylphenyl)-4-hydroxy-2-methylpyridine-3-carboxamide] |
| > 7.00 | > 7.00 | > 7.00 | > 7.00 |  |  | CCc1ncc(C(=O)Nc2ccc(Oc3ccnc4cc(OC)c(OC)nc34)c(F)c2)c(O)c1-c1ccc(F)cc1 [Compound 504, N-[4-[(6,7-dimethoxy-1,5-naphthyridin-4-yl)oxy]-3-fluorophenyl]-6-ethyl-5-(4-fluorophenyl)-4-hydroxypyridine-3-carboxamide] |
| > 7.00 | 6.52 to 7.00 | > 7.00 | > 7.00 |  |  | COCCOc1nc2c(Oc3ccc(NC(=O)c4cn(C)c(CF)c(-c5ccc(F)cc5)c4=O)cc3F)ccnc2cc1OC [Compound 557, N-[3-Fluoro-4-[[7-methoxy-6-(2-methoxyethoxy)-1,5-naphthyridin-4-yl]oxy]phenyl]-6-(fluoromethyl)-5-(4-fluorophenyl)-1-methyl-4-oxopyridine-3-carboxamide] |
| 6.52 to 7.00 | < 6.52 | > 7.00 | > 7.00 |  |  | COc1ccc2nccc(Oc3ccc(NC(=O)c4cn(C)c(CF)c(-c5ccc(F)cc5)c4=O)cc3F)c2n1 [Compound 561, N-[3-Fluoro-4-[(6-methoxy-1,5-naphthyridin-4-yl)oxy]phenyl]-6-(fluoromethyl)-5-(4-fluorophenyl)-1-methyl-4-oxopyridine-3-carboxamide] |
| > 7.00 | < 6.52 | > 7.00 | > 7.00 |  |  | COc1cc2nccc(Oc3ccc(NC(=O)c4cn(C)c(C(=O)O)c(-c5ccc(F)cc5)c4=O)cc3F)c2nc1OC [Compound 553, 5-[[4-[(6,7-Dimethoxy-1,5-naphthyridin-4-yl)oxy]-3-fluorophenyl]carbamoyl]-3-(4-fluorophenyl)-1-methyl-4-oxopyridine-2-carboxylic acid] |
| > 7.00 | > 7.00 | > 7.00 | > 7.00 |  |  | COc1cc2nccc(Oc3ccc(NC(=O)c4cnc(COC(C)=O)c(-c5ccc(F)cc5)c4O)cc3F)c2nc1OC [Compound 544, [5-[[4-[(6,7-dimethoxy-1,5-naphthyridin-4-yl)oxy]-3-fluorophenyl]carbamoyl]-3-(4-fluorophenyl)-4-hydroxypyridin-2-yl]methyl acetate] |
| 6.52 to 7.00 | > 7.00 | > 7.00 | > 7.00 |  |  | COc1cc2nccc(Oc3ccc(NC(=O)c4cc(C)nn(-c5ccc(F)cc5)c4=O)cc3F)c2nc1OC [Compound 519, N-[4-[(6,7-dimethoxy-1,5-naphthyridin-4-yl)oxy]-3-fluorophenyl]-2-(4-fluorophenyl)-6-methyl-3-oxopyridazine-4-carboxamide] |

Source: patent US12371428B2 (Exelixis, Inc., priority 2019, dated 2025)
